Here are results for eleven compounds from US9365520B2, “Heterocyclic compound” (Takeda Pharmaceutical Company Limited, priority 2014, dated 2016).

SMILES strings stand for the structures.

Assay [1] relates to IL-17A gene expression. Put plainly: Effect on IL-23-induced cytokine expression in mice. It is filed as in vivo, Balb/c mice. The settings on record: Mus musculus, 24 h, 30 min before and 8 hr after IL-23, ear tissue, versus the negative control group, read-out: percent inhibition of IL-17A gene expression; for inhibition in vivo at 10 mg/kg: 10 mg/kg oral. As for the experimental part:
Effect on IL-23-Induced Cytokine Expression in Mice
A mouse IL-23 solution (500 ng/10 μL, prepared by Takeda Pharmaceutical Company Limited) or PBS (10 μL, negative control group) was administered intradermally in the ear of Balb/c mice (Charles River Japan, male, 7 weeks old). Twenty-four hr after administration, the ear was resected under isoflurane anesthesia. The test compound was suspended in 0.5% methylcellulose and administered orally 30 min before and 8 hr after IL-23 administration.
RNA extraction from the ear tissue and quantitative PCR were performed as follows. Specifically, ear tissue 5 mm in diameter was punched from an area of the resected ear centering on the IL-23 injection site, and the tissue was immersed in RNAlater (QIAGEN) for at least 18 hr. The RNAlater-treated ear tissue was homogenized in 350 μL of RLT buffer (RNeasy mini kit, QIAGEN) and treated (55° C., 10 min) with Proteinase K (QIAGEN). Total RNA was then extracted according to the RNeasy mini kit protocol. The RNA thus obtained was then reverse transcribed into cDNA using the High-Capacity RNA-to-cDNA kit (Applied Biosystems), and the amount of each gene expressions was measured by real-time PCR (Viia7™, Applied Biosystems). The PCR buffer used was TaqMan Fast Advanced Master Mix (Applied Biosystems), and TaqMan Gene Expression Assays (Applied Biosystems) Mm00439618_m1 (IL-17A) and 4352341E (β-actin) were used for each gene detection. The IL-17A gene expression level was normalized to the β-actin gene expression level, and the percent inhibition of IL-17A gene expression with the test compound was then calculated.
The results (percent inhibition of IL-17A gene expression with oral administration of the test compound) measured by the above-mentioned method are shown in Table 9.

Assay [2] has as its system IL-23-induced mouse psoriasis model. In words: Effect in an IL-23-induced mouse psoriasis model. Type of assay: in vivo, Balb/c mice. The settings on record: versus the negative control group. On the procedure:
Effect in an IL-23-Induced Mouse Psoriasis Model
Mouse IL-23 (500 ng/15 μL, R&D) or PBS (15 μL, negative control group) was administered intradermally in the ear of Balb/c mice (Charles River Japan, male, 7 weeks old) 5 times every other days. Seven hr after IL-23 administration at 8 days after the initial administration (final administration), the mice were anesthetized with isoflurane, and ear thickness was measured with calipers. After the ear thickness was measured, the ear was resected, tissue 8 mm in diameter was punched from an area centering on the IL-23 injection site, and the tissue was weighed. The punched ear tissue was cut in half, and one half was immersion-fixed in 10% neutral buffer formalin solution for use in histopathological evaluation. The other half was immersed in RNAlater (QIAGEN) for at least 18 hr for use in an evaluation of the IL-17A mRNA expression level. The test compound was suspended in 0.5% methylcellulose and administered orally twice daily on consecutive days from 30 min before the initial IL-23 administration to 30 min before the final IL-23 administration.
The change in ear thickness in this model was evaluated by calculating the difference in measured thickness between before IL-23 administration and 7 hr after the final IL-23 administration. In addition, the formalin-fixed tissue was embedded and sectioned, then stained with hematoxylin-eosin. The degree of acanthosis was then evaluated qualitatively by microscopy (classified with a score of 0 to 4). RNA extraction from the ear tissue and quantitative PCR were performed as follows. As described above, ear tissue treated with RNAlater (QIAGEN) was homogenized in 350 μL of RLT buffer (RNeasy mini kit, QIAGEN) and treated (55° C., 10 min) with Proteinase K (QIAGEN). Total RNA was then extracted according to the RNeasy mini kit protocol. The RNA thus obtained was reverse transcribed into cDNA using the High-Capacity RNA-to-cDNA kit (Applied Biosystems), and the expression of each gene was measured by real-time PCR (Viia7™, Applied Biosystems). The PCR buffer used was TaqMan Fast Advanced Master Mix (Applied Biosystems), and TaqMan Gene Expression Assays (Applied Biosystems) Mm00439618_ml (IL-17A) and 4352341E (β-actin) were used to detect the genes. The IL-17A gene expression level was normalized to the β-actin gene expression level, and the percent inhibition of IL-17A gene expression with the test compound was then calculated.
The results (percent inhibition of ear thickness, acanthosis score and IL-17A gene expression with oral administration of the test compound) measured by the above-mentioned method are shown in Table 10.

Assay [3] concerns T cell-transferred mouse colitis model. Put plainly: Effect in a T cell-transferred mouse colitis model. The settings on record: 3 mg/kg oral twice daily; 21 days after cell transfer; versus the negative control group. It is filed as in vivo, mice. The text has this: Effect in a T Cell-Transferred Mouse Colitis Model
Balb/c mice (Charles River Japan, female, 8 weeks old) were euthanized, and the spleens were resected, mashed in mesh, and passed through cell strainer to prepare a suspension of splenic cells. The mononuclear cell fraction in the splenic cells was isolated by density-gradient centrifugation, and subjected to hemolysis treatment with ammonium chloride buffer solution (Immuno-Biological Laboratories, Co., Ltd.). The naive T-cells were purified using CD4+CD62L+ T Cell Isolation Kit II (Miltenyi Biotec). The naive T-cells (2×10^5 cells/mouse) were intravenously transferred into SCIDmice (CLEA Japan, female, 8 weeks old). The compound was suspended in 0.5% methyl cellulose, and the suspension was orally administered twice daily on consecutive days from the same evening of the cell transfer. The mice were blinded 20 days after the cell transfer, and the symptom of the stool on floorcloth under blind was evaluated by scores of 1 to 4 (1: normal, 2: loose stool, 3: diarrhea (formed), 4: diarrhea (unformed)) 21 days after the cell transfer. […] The large intestine was washed with saline, and the weight was measured.
The results (percent inhibition of intestinal tract weight and diarrhea score with oral administration of the test compound) measured by the above-mentioned method are shown in Table 11.

For assay [4], the system named is mouse EAE model. In words: Effect in a mouse EAE model. Type of assay: in vivo, C57BL/6J mice. Particulars: 3 mg/kg oral; integration value of the clinical score for 28 days; versus the negative control group. As for the experimental part:
Effect in a Mouse EAE Model
. C57BL/6J mice (10 weeks old, female, Charles River Japan) were grouped based on the body weight, and the MOG emulsion was intradermally administered at two point of the joint of dorsal hindlimb so that the dose was 100 μL/site, 200 μL/mouse. In addition, Pertussis toxin (Merck) was intraperitoneally administered twice on the sensitization day and 2 days thereafter in the dose of 400 ng/200 μL/mouse. The body weight was measured twice a week before onset and everyday (excluding holiday) after onset from the sensitization day. The clinical score was evaluated by the following standard scores of 0 to 5 (0: normal, 0.5: partial paralysis of tail, 1: complete paralysis of tail, 2: partial paralysis of hindlimb, 3: paralysis of lower body, 4: partial paralysis of forelimb, 5: paralysis of both forelimbs or death) by observation everyday (excluding holiday) after the beginning of onset.
The percent inhibition of the clinical score of the test compound administration group relative to that of the control group was calculated using integration value of the clinical score for 28 days.
The results (percent inhibition of clinical score with oral administration of the test compound) measured by the above-mentioned method are shown in Table 12.

As to `COc1ccc2c(n1)CCN(C(=O)[C@H]1C[C@@H](C(=O)O)C1)[C@H]2C(=O)Nc1cc(F)c2c(c1)CCC2(C)C` [Example 10], the inhibition in vivo at 10 mg/kg in assay [1] turned out to be 87%. For the same compound, in assay [2] (1 mg/kg oral twice daily), the “percent inhibition of IL-17A expression” value was 91%, the “percent inhibition of acanthosis score” value worked out at 47% and the “percent inhibition of ear thickness” value came to 52%.

`COc1ccc2c(n1)CCN(C(=O)[C@H]1C[C@@H](CC(=O)O)C1)[C@H]2C(=O)Nc1cc(F)c2c(c1)CCC2(C)C` [Example 15, (cis-3-(((5R)-5-((7-fluoro-1,1-dimethyl-2,3-dihydro-1H-inden-5-yl)carbamoyl)-2-methoxy-7,8-dihydro-1,6-naphthyridin-6(5H)-yl)carbonyl)cyclobutyl)acetic acid]: the inhibition in vivo at 3 mg/kg in assay [1] (3 mg/kg oral) worked out at 99%. In assay [2] (3 mg/kg oral twice daily), the “percent inhibition of IL-17A expression” value is 93%, the “percent inhibition of acanthosis score” value was determined as 53% and the “percent inhibition of ear thickness” value is listed as 61%. In addition, in assay [3], the “percent inhibition of diarrhea score” value came out at 81% and the “percent inhibition of intestinal tract weight” value is recorded as 58%. For the same compound, the “percent inhibition of clinical score” value in assay [4] is reported as 64%.

Consider `COc1ccc2c(n1)CCN(C(=O)[C@H]1C[C@@H](CC(=O)O)C1)[C@H]2C(=O)Nc1cc(F)c([Si](C)(C)C)c(F)c1` [Example 23, (cis-3-(((5R)-5-((3,5-difluoro-4-(trimethylsilyl)phenyl)carbamoyl)-2-methoxy-7,8-dihydro-1,6-naphthyridin-6(5H)-yl)carbonyl)cyclobutyl)acetic acid], for which, in assay [1], the inhibition in vivo at 10 mg/kg stood at 96%.

`COCc1ccc2c(c1)CCN(C(=O)[C@H]1C[C@H](CC(=O)O)C1)[C@H]2C(=O)Nc1cc(F)c2c(c1)CCC2(C)C` [Example 24, (trans-3-(((1R)-1-((7-fluoro-1,1-dimethyl-2,3-dihydro-1H-inden-5-yl)carbamoyl)-6-(methoxymethyl)-3,4-dihydroisoquinolin-2(1H)-yl)carbonyl)cyclobutyl)acetic acid]: the inhibition in vivo at 10 mg/kg in assay [1] worked out at 74%.

On to `COc1ccc2c(c1)CCN(C(=O)[C@H]1C[C@@H](CC(=O)O)C1)[C@H]2C(=O)Nc1cc(F)c([Si](C)(C)C)c(F)c1` [Example 25, (cis-3-(((1R)-1-((3,5-difluoro-4-(trimethylsilyl)phenyl)carbamoyl)-6-methoxy-3,4-dihydroisoquinolin-2(1H)-yl)carbonyl)cyclobutyl)acetic acid], for which the inhibition in vivo at 10 mg/kg in assay [1] stood at 92%.

Regarding `COc1ccc2c(n1)CCN(C(=O)[C@H]1C[C@H](CC(=O)O)C1)[C@H]2C(=O)Nc1cc(F)c([Si](C)(C)C)c(F)c1` [Example 28, (trans-3-(((5R)-5-((3,5-difluoro-4-(trimethylsilyl)phenyl)carbamoyl)-2-methoxy-7,8-dihydro-1,6-naphthyridin-6(5H)-yl)carbonyl)cyclobutyl)acetic acid], in assay [1], the inhibition in vivo at 10 mg/kg is 91%.

`COc1ccc2c(c1)CCN(C(=O)[C@H]1C[C@@H]1CC(=O)O)[C@H]2C(=O)Nc1cc(F)c([Si](C)(C)C)c(F)c1` [Example 29, ((1R,2S)-2-(((1R)-1-((3,5-difluoro-4-(trimethylsilyl)phenyl)carbamoyl)-6-methoxy-3,4-dihydroisoquinolin-2(1H)-yl)carbonyl)cyclopropyl)acetic acid]: the inhibition in vivo at 10 mg/kg in assay [1] was found to be 73%.

`COc1ccc2c(n1)CCN(C(=O)[C@H]1C[C@@H](C(=O)O)C1)[C@H]2C(=O)Nc1cc(F)c([Si](C)(C)C)c(F)c1` [Example 31, cis-3-(((5R)-5-((3,5-difluoro-4-(trimethylsilyl)phenyl)carbamoyl)-2-methoxy-7,8-dihydro-1,6-naphthyridin-6(5H)-yl)carbonyl)cyclobutanecarboxylic acid]: the inhibition in vivo at 10 mg/kg in assay [1] was found to be 85%.

Consider `COc1ccc2c(c1)CCN(C(=O)[C@H]1C[C@@H](C(=O)O)C1)[C@H]2C(=O)Nc1ccc([Si](C)(C)C)c(F)c1` [Example 32, cis-3-(((1R)-1-((3-fluoro-4-(trimethylsilyl)phenyl)carbamoyl)-6-methoxy-3,4-dihydroisoquinolin-2(1H)-yl)carbonyl)cyclobutanecarboxylic acid], for which, in assay [1], the inhibition in vivo at 10 mg/kg is 83%.

On to `COc1ccc2c(c1)CCN(C(=O)[C@H]1C[C@@H](CC(=O)O)C1)[C@H]2C(=O)Nc1ccc([Si](C)(C)C)c(F)c1` [Example 33, (cis-3-(((1R)-1-((3-fluoro-4-(trimethylsilyl)phenyl)carbamoyl)-6-methoxy-3,4-dihydroisoquinolin-2(1H)-yl)carbonyl)cyclobutyl)acetic acid], for which the inhibition in vivo at 10 mg/kg in assay [1] came to 94%.

As for `COc1ccc2c(n1)CCN(C(=O)[C@H]1C[C@@H](C(=O)OCc3ccccc3)C1)[C@H]2C(=O)Nc1cc(F)c2c(c1)CCC2(C)C` [Example 36, benzyl cis-3-(((5R)-5-((7-fluoro-1,1-dimethyl-2,3-dihydro-1H-inden-5-yl)carbamoyl)-2-methoxy-7,8-dihydro-1,6-naphthyridin-6(5H)-yl)carbonyl)cyclobutanecarboxylate], in assay [1], the inhibition in vivo at 10 mg/kg was 78%.
